Assay: Zeta potential
Format: physicochemical
Protocol: In certain embodiments, the ZLC, e.g., any of Complex 2, et seq. can have a zeta potential on the order of +10 to +60, e.g., between +20 and +50. Zeta potential is measured as described below. The zeta potential indicates the degree of repulsion between adjacent, similarly charged particles in a dispersion. For molecules and particles that are small enough to be influenced by […], a high zeta potential will tend to confer stability, i.e., the particles will tend to repel one another, and the solution or dispersion will resist aggregation. When the zeta potential is low, attraction exceeds repulsion and the dispersion will break and flocculate. Here, it is desirable to have a zeta potential that is high enough in formulation to deter aggregation, but low enough to allow flocculation and blockage of the pores. […] Having a similar zeta potential, the ZLC, e.g., any of Complex 2, et seq. will behave similarly and flocculate when introduced into a pore and becomes hydrated. In contrast, zinc chloride has a zeta potential of about 0, which is much lower than current antiperspirant salts and the current disclosure.

Structure (SMILES): [Cl-].[Cl-].[Zn+2] [zinc chloride]
- zeta potential: about 0
